Type in all cases: in vivo, human
Experiment [1] deals with interleukin 6. Nature of the experiment: Interleukin 6 titre in blood of patients before and after liver resection (Fig. 2). The settings on record: post-procedure increase, first and second day after resection; adenosine group vs. control groups; three to five patients per group. The procedure:
(§1) Adenosine group: The members of this group were experiencing liver trauma during resection and additional organ ischemia during resection (Pringle-manoeuvre, duration 30 to 45 minutes). Liver protection was realised by intermitting central venous administration of adenosine (infusion duration 10 minutes, 120 to 150 µg/kg body weight/min) 20 minutes prior to resection/ischemia, and a new continuous infusion immediately after reperfusion (infusion duration 70 to 90 minutes, 120 to 150 µg/kg body weight/min).
(§2) To assess protection conferred by adenosine on the anti-inflammation branch, both interleukin 6 and granulocyte functions were determined, whereby the results are presented in Figs. 2 and 3.
As depicted in Fig. 2, the level of interleukin 6 increased in any of the four groups, whereby each group consisted of three to five patients. Such increase is typically observed as a post-procedure reaction. The serum titres of the pro-inflammatory cytokine interleukin 6 can increase by three magnitudes compared to the pre-procedure titre and were highest in control group 2, where both surgical liver trauma and ischemia/reperfusion were combined.

Experiment [2] deals with beta 2 adhesion molecules on circulating granulocytes. Put plainly: Granulocyte function: expression of beta 2-integrins on circulating granulocytes, FACScan with FITC marked anti-CD18 antibody (Fig. 3). The settings on record: observed immediately after ischemia and reperfusion; adenosine administered prior and after ischemia; vs. control groups 1 and 2. The procedure: as §1, §2
The further parameter for anti-inflammation, i. e. granulocyte function, was measured as the inhibition of potential cytotoxic functions of white blood cells due to liver ischemia which was measured using the expression of beta 2-intergrins through the monoclonal anti-CD18 antibody. More particularly, the expression was determined prior to ischemia and 3, 30 and 120 minutes after reperfusion. The cells were analysed using a FACScan and a FITC marked anti-CD18 antibody. […] As indicated in Fig. 3 $ p < 0.05 vs. control group 1, # p < 0.05 vs. control group 2.

Experiment [3] can be described thus: Lactate in serum for monitoring the energetic situation after partial liver resection. The procedure:
as §1
(§3) The following tests were carried out in order to assess the post-operational organ functions: • 1. Quick test • 2. Determination of the bilirubin • 3. Lactate for monitoring the energetic situation
(§4) Any of the results obtained by applying these tests on blood samples taken from the members of the various study groups, are depicted in table 1: Table 1:
Also using lactate as a parameter for cytoprotective effects confirms the significant effectiveness of adenosine administration. The lactate concentration in serum is regarded as a marker for the extent of anaerobic metabolism due to lack of oxygen caused by a cellular lack of energy. The lactate concentrations in the serum are highest post-procedure in group 2, where surgical liver trauma and ischemia/reperfusion was combined.

Experiment [4] can be described thus: Quick test (prothrombin time) on blood samples of patients after partial liver resection. The procedure:
as §1, §3, §4
The quick test serves as a parameter for the assessment of the protein synthesis performance of the liver after the procedure.

Experiment [5] can be described thus: Determination of bilirubin in blood samples of patients after partial liver resection. The procedure: as §1, §3
Any of the results obtained by applying these tests on blood samples taken from the members of the various study groups, are depicted in table 1: Table 1: […]

Where [6] appears, read: first postoperative day, adenosine 120 to 150 µg/kg body weight/min prior to resection/ischemia and after reperfusion, mean.
The mark [7] stands for this setting: second postoperative day, same regimen, mean.

Where only a bound is given, the exact number is not on record here.

In the case of `Nc1ncnc2c1ncn2[C@@H]1O[C@H](CO)[C@@H](O)[C@H]1O` [Adenosine, adenosine], the “IL 6 titre” value in experiment [1] is “significantly less pronounced”. Also, in experiment [2], the “activation of granulocytes circulating in the blood” value is “effectively avoided”. Also, the Lactate-1 in experiment [3] (setting [6]) is 1,8 mmo I/I. For the same compound, in experiment [3] (intravenous systemic administration of adenosine prior and after resection and ischemia, compared with control group 2), the “initial increase in the lactate on the first post-procedure day” value was “less pronounced”. For the same compound, the Lactat pre in experiment [3] (preoperative baseline, lactate-concentration, mean of adenosine group, norm <2) is <1,0 mmo I/I. For the same compound, the Lactate-2 in experiment [3] (setting [7]) is given as 1,2 mmo I/I. In addition, in experiment [4] (adenosine group compared with the control groups), the “value of the quick test on the first and second day after surgery (liver synthesis performance)” value is reported as “higher in the adenosine group”. The “PT(Quick)1” value in experiment [4] (first postoperative day, partial liver resection with Pringle-manoeuvre 30 to 45 minutes, adenosine central venous 120 to 150 µg/kg body weight/min, 10 minutes given 20 minutes prior to resection/ischemia and 70 to 90 minutes after reperfusion, mean) was “#*66%”. The “PT(Quick)pre” value in experiment [4] (preoperative baseline, Prothrombin Time expressed as Quick-values, mean of adenosine group, norm 70-100 %) is reported as 100%. The “PT(Quick)2” value in experiment [4] (setting [7]) is 72%. Further, in experiment [5] (adenosine group, post-procedure vs. pre-procedure values), the bilirubin concentration result was “remained unchanged compared to pre- procedure values”. In addition, the bili-1 entry in experiment [5] (setting [6]) is listed as “#0,6 mg/dI”. For the same compound, the bili pre in experiment [5] (preoperative baseline, bilirubin, mean of adenosine group, norm <1,0) is 0,4 mg/dI. Also, the bili-2 result in experiment [5] (setting [7]) was “#0,5 mg/dI”.

These data come from patent EP1582213A1, “Use of adenosine for treating surgery related ischemia” (Ludwig-Maximilians-Universität München, priority 2004, dated 2005).
